Reference: article PMC10959927, “Platinum iodido drugs show potential anti-tumor activity, affecting cancer cell metabolism and inducing ROS and senescence in gastrointestinal cancer cells” (Communications Biology, 2024)
Values joined by “and” are separate entries in the source; they are usually repeats but may differ in a detail not shown here. Equal values may be shown once.

Columns and labels:
Type in all cases: cell-based, human
[1] = tested on: MKN45 cells; test: Clonogenic (CFU) assay with or without NAC; settings: 10 days
Procedure: (§1) For the clonogenic assay we used two different approaches. […] Then, cells were cultured in a 6-well plate at a very low concentration (2 × 10^3 cells per well) and incubated for 10 days. […] To evaluate the role of ROS in cell proliferation, we supplemented the growth medium with 0.5 mM NAC. After 10 days, the cells were fixed with 1% glutaraldehyde and stained with 0.1% crystal violet. The number of colonies was quantified directly and reflected as CFUs: Colony Forming Units.

[2] = tested on: AGS cells; test: Clonogenic (CFU) assay with or without NAC; settings: 10 days
Procedure: as §1

[3] = tested on: PANC1 cells; test: Clonogenic (CFU) assay after 1, 3, 24 h pre-treatment
Procedure: as §1

[4] = tested on: PANC1 cells; test: Immunofluorescence of γ-H2AX and 53BP1 foci; settings: for foci/cell, share of cells in class (Suma 100) / foci/cell, number of cells in class: PANC1, Fig. 3B; for foci/cell, number of cells in class: cell count
Procedure: (§2) Cells (7 × 10^4) were seeded on 20 mm coverslips. […] Coverslips were incubated for 1 h with the primary antibody (Cell Signaling: H2AX Ser139 (#2595) and 53BP1 (#4937)) at room temperature, followed by a 1 h incubation with the appropriate secondary antibody. DNA was stained with DAPI. Fluorescence microscopy was performed using a NIKON Eclipse 90i. The image analysis was performed using the software program Nikon NIS-Elements and Image J.

[5] = tested on: AGS cells; test: Immunofluorescence of γ-H2AX and 53BP1 foci; settings: for foci/cell, share of cells in class (Suma 100) / foci/cell, number of cells in class: Fig. 3B; for foci/cell, number of cells in class: cell count
Procedure: as §2

[6] = tested on: telomeres, 36B4, MT-COX1, MT-CYB DNA of MKN45 cells; test: Oxidized bases (FPG-sensitive lesions) in genome regions by qPCR; settings: MKN45, IC50 concentration 24 h, normalized to control, single replicates
Description: (§3) Total cellular DNA from MKN45 and PANC1 cells was extracted using an NZY Tissue gDNA Isolation Kit (Nzytech, MB13503) following the manufacturer’s instructions and quantified using a Nanodrop (Nanodrop Spectrophotometer ND-1000, ThermoFisher Scientific, Wilmington, DE, USA). We adapted the procedure described by O’Callaghan et al.[76] to measure oxidative DNA damage at telomeres, 36B4 genomic region and at mitochondrial DNA (MT-COX1, MT-CYB). This is a qPCR method based on differences in PCR kinetics between DNA template digested by Formamidopyrimidine DNA Glycosylase (FPG, Cat no. M0240S) and undigested DNA. This enzyme recognizes and cuts 8-oxoguanine, producing apurinic sites that are converted into single-strand breaks by its apurinic sites lyase activity. These single-strand breaks inhibit the PCR, thus, the ΔCT after digesting DNA by […] (Ct digested–Ct undigested) is proportional to the oxidative damage in the amplified region. DNA was incubated with 8 Units of FPG during 3 h in FPG buffer (NEB1, M0240S). The reaction was stopped by incubation at 95 °C for 5 min. qPCR analysis was performed on 40 ng of digested or undigested genomic DNA. Each qPCR was performed in triplicate including no-template controls in a StepOne Real‐time PCR System (Applied Biosystems, 4376357). Target genes (Table 3) were amplified using SYBR Green (Applied Biosystems, MB345). Thermal cycling of the qPCR reaction was initiated with a denaturation step at 95 °C for 10 min. The process consisted of 40 cycles (denaturation at 95 °C for 15 sec, annealing at 60 °C for 30 sec, and elongation at 72 °C for 30 sec). This experiment was repeated three independent times with 10–12 replicates.

[7] = tested on: telomeres, 36B4, MT-COX1, MT-CYB DNA of PANC1 cells; test: as above; settings: PANC1, IC50 concentration 24 h, normalized to control, single replicates
Description: as §3

[8] = tested on: MKN45 cells; test: SA-β-Gal activity, CellEvent Senescence Green flow cytometry;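 also: IC50 concentration of each compound relative to untreated control set as 1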; settings: Fig. 3A, replicate values
Procedure: (§4) SA-β-Gal activity was measured following two different approaches. (i) AGS, MKN45 and PANC1 cells (5 × 10^4) were seeded in 24-multiwell dishes and incubated overnight. […] For flow cytometry cell senescence detection, cells were tripsinized, fixed for 15 min with PFA 4% and stained with the CellEvent Senescense Green Flow Cytometry Assay Kit (C10840, Invitrogen) according to manufacturer’s instructions. CellEvent Senescense Green Probe was used at a 1:500 dilution and fluorescence was detected using the filter (Ex488nm/Em530/30) BL1 with a 4-laser Attune NxT Acoustic Cytometer (Thermo Fisher Scientific). […] After 3 h, the treatments were removed, new supplemented medium was added, and cells were incubated for an additional 24 h. Finally, SA-β-Gal staining was performed using the Senescence Cells Histochemical Staining Kit (CS0030-1KT) according to the manufacturer’s instructions.

[9] = tested on: PANC1 cells; test: as above; settings: Fig. 3A, replicate values
Procedure: as §4

[10] = tested on: AGS cells; test: as above; settings: Fig. 3A, replicate values
Procedure: as §4
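For Fold change % Senescence in this document: IC50 concentration of each compound relative to untreated control set as 1.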

In the case of `CC(C)[NH][Pt@SP1]([I])([I])[NH]C(C)C` [I6, cis-[PtI2(isopropylamine)2]], the “colonies (CFUs), mean ± SD” value ([1]; MKN45 + NAC 0.5 mM, IC25 concentration) is reported as 526 ± 93, the “colonies (CFUs), mean ± SD” value ([1]; MKN45 + NAC 0.5 mM, IC50 concentration) is reported as 46 ± 2 and the “colonies (CFUs), mean ± SD” value ([1]; MKN45, IC25 concentration, no NAC) is reported as 1 ± 1.7. The “colonies (CFUs), mean ± SD” value ([1]; MKN45, IC50 concentration, no NAC) was 0, the “colonies (CFUs), mean ± SD” value ([2]; AGS + NAC 0.5 mM, IC25 concentration) was 613 ± 89 and the “colonies (CFUs), mean ± SD” value ([2]; AGS + NAC 0.5 mM, IC50 concentration) was 329 ± 152. The “colonies (CFUs), mean ± SD” value ([2]; AGS, IC25 concentration, no NAC) was 268 ± 63, the “colonies (CFUs), mean ± SD” value ([2]; AGS, IC50 concentration, no NAC) was 0 and the CFUs ([3]; PANC1, 1 h pre-treatment at IC50, colonies after 10 days) was 336 and 264 and 360. The CFUs ([3]; PANC1, 3 h pre-treatment at IC50, colonies after 10 days) was 292 and 280 and 324, the “foci/cell: number of cells with 16-30 foci” value ([4]; PANC1, Fig. S4B, cell counts) was 43 and the “foci/cell: number of cells with 31-45 foci” value ([4]; PANC1, Fig. S4B, cell counts) was 7. For the same compound, the “foci/cell: number of cells with 46-60 foci” value ([4]; PANC1, Fig. S4B, cell counts) was 2, the “foci/cell: number of cells with <15 foci” value ([4]; PANC1, Fig. S4B, cell counts) was 39 and the “foci/cell: number of cells with >61 foci” value ([4]; PANC1, Fig. S4B, cell counts) was 5. For the same compound, the “foci/cell: share of cells with 16-30 foci (Suma 100)” value ([4]; PANC1, Fig. S4B, share of N) was 44.7917, the “foci/cell: share of cells with 31-45 foci (Suma 100)” value ([4]; PANC1, Fig. S4B, share of N) was 7.292 and the “foci/cell: share of cells with 46-60 foci (Suma 100)” value ([4]; PANC1, Fig. S4B, share of N) was 2.083. For the same compound, the “foci/cell: share of cells with <15 foci (Suma 100)” value ([4]; PANC1, Fig. S4B, share of N) was 40.625, the “foci/cell: share of cells with >61 foci (Suma 100)” value ([4]; PANC1, Fig. S4B, share of N) was 5.208 and the “foci/cell, share of cells in class (Suma 100)” value (“foci/cell, share of cells” below) ([4]; class 16-30 foci/cell) was 41.9753. The “foci/cell, number of cells in class” value ([4]; class 16-30 foci/cell) was 34, the “foci/cell, share of cells” value ([4]; class 31-45 foci/cell) was 18.5185 and the “foci/cell, number of cells in class” value ([4]; class 31-45 foci/cell) was 15. For the same compound, the “foci/cell, share of cells” value ([4]; class 46-60 foci/cell) was 6.173, the “foci/cell, number of cells in class” value ([4]; class 46-60 foci/cell) was 5 and the “foci/cell, share of cells” value ([4]; class <15 foci/cell) was 22.2222. The “foci/cell, number of cells in class” value ([4]; class <15 foci/cell) was 18, the “foci/cell, share of cells” value ([4]; class >61 foci/cell) was 11.1111 and the “foci/cell, number of cells in class” value ([4]; class >61 foci/cell) was 9. The “foci/cell, share of cells” value ([5]; class 16-30 foci/cell) was 23.3831, the “foci/cell, number of cells in class” value ([5]; class 16-30 foci/cell) was 47 and the “foci/cell, share of cells” value ([5]; class 31-45 foci/cell) was 26.3682. The “foci/cell, number of cells in class” value ([5]; class 31-45 foci/cell) was 53, the “foci/cell, share of cells” value ([5]; class 46-60 foci/cell) was 13.9303 and the “foci/cell, number of cells in class” value ([5]; class 46-60 foci/cell) was 28. For the same compound, the “foci/cell, share of cells” value ([5]; class <15 foci/cell) was 29.3532, the “foci/cell, number of cells in class” value ([5]; class <15 foci/cell) was 59 and the “foci/cell, share of cells” value ([5]; class >61 foci/cell) was 6.965. The “foci/cell, number of cells in class” value ([5]; class >61 foci/cell) was 14, the “foci/cell: number of cells with 16-30 foci” value ([5]; Fig. S4B, cell counts) was 54 and the “foci/cell: number of cells with 31-45 foci” value ([5]; Fig. S4B, cell counts) was 20. The “foci/cell: number of cells with 46-60 foci” value ([5]; Fig. S4B, cell counts) was 3, the “foci/cell: number of cells with <15 foci” value ([5]; Fig. S4B, cell counts) was 39 and the “foci/cell: number of cells with >61 foci” value ([5]; Fig. S4B, cell counts) was 4. For the same compound, the “foci/cell: share of cells with 16-30 foci (Suma 100)” value ([5]; Fig. S4B, share of N) was 45, the “foci/cell: share of cells with 31-45 foci (Suma 100)” value ([5]; Fig. S4B, share of N) was 16.6667 and the “foci/cell: share of cells with 46-60 foci (Suma 100)” value ([5]; Fig. S4B, share of N) was 2.5. The “foci/cell: share of cells with <15 foci (Suma 100)” value ([5]; Fig. S4B, share of N) was 32.5, the “foci/cell: share of cells with >61 foci (Suma 100)” value ([5]; Fig. S4B, share of N) was 3.333 and the “TEL (Fold change - ΔCt TEL), oxidative DNA damage” value ([6]; FPG-digested vs undigested) was 0.7872 and 0.7903 and 0.6876 and 0.7373 and 0.6171 and 1.142 and 1.077 and 1.074 and 1.391. For the same compound, the “36B4 (Fold change - ΔCt 36B4), oxidative DNA damage” value [6] was 0.9227 and 0.9306 and 1.569 and 1.862 and 2.074 and 2.392 and 1.861 and 2.101 and 1.707 and 2.034, the “MT-COX1 (Fold change - ΔCt MT-COX1), oxidative DNA damage” value [6] was 1.321 and 1.289 and 1.307 and 1.545 and 0.7235 and 0.8203 and 2.299 and 2.595 and 3.243 and 4.134 and the “MT-CYB (Fold change - ΔCt MT-CYB), oxidative DNA damage” value [6] was 1.235 and 1.231 and 1.262 and 1.5934 and 1.492 and 1.356 and 1.4814 and 1.489 and 0.5469 and 0.6464 and 1.605. For the same compound, the “TEL (Fold change - ΔCt TEL), oxidative DNA damage” value ([7]; FPG-digested vs undigested) was 5.579 and 4.9877 and 4.471 and 0.2398 and 0.9572 and 1.407 and 2.172 and 1.711 and 1.673 and 1.777, the “36B4 (Fold change - ΔCt 36B4), oxidative DNA damage” value [7] was 1.888 and 2.028 and 1.034 and 1.832 and 3.4044 and 3.392 and 3.578 and 2.951 and 2.103 and 2.482 and the “MT-COX1 (Fold change - ΔCt MT-COX1), oxidative DNA damage” value [7] was 1.444 and 1.678 and 1.516 and 1.609 and 1.88 and 0.5367 and 1.4145 and 1.209 and 1.263 and 1.421. The “MT-CYB (Fold change - ΔCt MT-CYB), oxidative DNA damage” value [7] was 1.356 and 1.264 and 1.349 and 1.774 and 2.04 and 1.998 and 2.191 and 4.689 and 8.16 and 4.981 and 6.184, the “Fold change % Senescence” value [8] was 5.26 fold change and 5.34 fold change and 6.2 fold change and the “Fold change % Senescence” value [9] was 3.99 fold change and 3.23 fold change and 3.43 fold change. For the same compound, the “Fold change % Senescence” value [10] was 5.13 fold change and 5.74 fold change and 3.46 fold change.
